Results reported in patent US20210369615A1, “SOLID ORAL FORMULATIONS OF AMPHOTERICIN B” (iCo Therapeutics Inc., priority 2018, published 2021).
Values joined by “and” are separate entries in the source; they are usually repeats but may differ in a detail not shown here. Identical values can stand only once.

Test: Stability study: related substances (% area) after storage
Assay type: physicochemical
Protocol: A stability study was initiated for Formulation 1A and Formulation 2A. The capsules were packaged in 30 cc HDPE bottles with induction sealed PP caps and the bottles were stored under ICH stability conditions in humidity chambers at 25° C./60% RH and under accelerated conditions, 40° C./75% RH. The capsules were stored at 4-8° C. directly after preparation until they were placed into the stability chambers. […]
Another stability study was initiated for Formulation 5A. The capsules were packaged as per Formulation 1A and Formulation 2A and store under the same conditions.
An Amphotericin B/TPGS/Peceol/Gelucire 44/14 semi-solid lipid based formulation in hard shell capsule was prepared (Formulation 5A) and stored under ICH controlled stability conditions. […] The dissolution profile however decreased (Table 23 and FIG. 9). As indicated before, this behavior could be a result a recrystallization or aggregation of the AmpB.

With `C[C@@H]1[C@H](O)[C@@H](C)/C=C/C=C/C=C/C=C/C=C/C=C/C=C/[C@H](O[C@@H]2O[C@H](C)[C@@H](O)[C@H](N)[C@@H]2O)C[C@@H]2O[C@](O)(C[C@@H](O)C[C@@H](O)[C@H](O)CC[C@@H](O)C[C@@H](O)CC(=O)O[C@H]1C)C[C@H](O)[C@H]2C(=O)O` [AmpB (Corealis lot drawing 729)] as the molecule, how does the “Related Substances, Total % area” value (T = 0) read?
The value was 7.67 % area.

And the “Related Substances, individual peak % area” value (T = 0, individual peaks ≥ 0.10%, RRT given)?
Its value is 0.54 % area and 0.12 % area (2×) and 0.32 % area and 0.33 % area and 0.24 % area and 0.60 % area and 0.31 % area and 0.65 % area and 0.69 % area and 0.30 % area and 1.00 % area and 1.47 % area and 0.82 % area and 0.14 % area.

What about the “Related Substances, Total % area” value (T = 1 month 40° C./75% RH) of the same molecule?
The value was 7.71 % area.

What about the “Related Substances, individual peak % area” value (T = 1 month 40° C./75% RH, individual peaks, RRT) of the same molecule?
Its value is 0.79 % area and 0.13 % area and 0.57 % area and 0.16 % area and 0.32 % area and 0.33 % area and 0.24 % area and 0.59 % area and 0.31 % area (2×) and 0.11 % area and 0.62 % area and 0.69 % area and 1.00 % area and 1.52 % area.

What about the “Related Substances, Total % area” value (T = 3 months 25° C./60% RH) of the same molecule?
Its value is 7.38 % area.

What about the “Related Substances, individual peak % area” value (T = 3 months 25° C./60% RH, individual peaks, RRT) of the same molecule?
The value was 0.14 % area (2×) and 0.78 % area and 0.15 % area (3×) and 0.48 % area and 0.35 % area and 0.22 % area and 0.54 % area and 0.25 % area and 0.57 % area and 0.77 % area and 0.13 % area and 0.16 % area and 1.03 % area and 1.37 % area.

What about the “Related Substances, Total % area” value (T = 6 months 25° C./60% RH) of the same molecule?
The value was 7.18 % area.

And the “Related Substances, individual peak % area” value (T = 6 months 25° C./60% RH, individual peaks, RRT)?
The value was 0.12 % area and 0.86 % area and 0.14 % area (2×) and 0.52 % area and 0.64 % area and 0.20 % area and 0.71 % area (2×) and 0.56 % area and 0.10 % area and 0.15 % area and 1.01 % area and 1.32 % area.

And the “Related Substances, Total % area” value (T = 6 months 40° C./75% RH)?
Its value is 7.32 % area.
